In patent US5112382A, “Halopropargyl compounds, compositions, uses and processes of preparation” (Rohm and Haas Company, priority 1990, dated 1992):
In brackets after ≈: the same amount, converted by molar mass. Like-named read-outs stand apart in the source and are kept apart here.

What was measured:
Botrytis cinerea = test: In-vitro plant fungicide test, BOC; conditions: read-out: % Control
Aspergillus niger = test: MIC, broth two-fold serial dilution test, Anig; format: cell-based; conditions: read-out: Minimum Inhibitory Concentration (MIC)
Method: (§1) A minimum inhibitory concentration (MIC) value is obtained using a broth, two-fold serial dilution test performed as follows: […] A volume of the stock solution is dispensed into culture media to give an initial starting test concentration of 500 ppm compound. The test is carried out by adding and equal volume of broth to each vessel in the dilution series, except for the first vessel. The first vessel contains twice the volume of broth plus the initial concentration of test compound. One half of the broth from the first vessel is transferred to the second vessel. After being mixed, one half the resulting volume is removed from the second vessel and transferred to the third vessel. The entire cycle is repeated sufficiently to give a series of concentrations amounting to 500, 250, 125, 63, 31, 16, 8, and 4 ppm (or 100, 50, 25, 12.5, 6.2, 3.1, 1.6, and 0.8), respectively. Each vessel is then inoculated with a cell suspension of the appropriate test organism. Bacteria are grown in both and fungi on agar slats for a time and at a temperature appropriate to the species being tested. At the end of the growth period, the broth is vortexed to disperse the cells. In the case of fungi, the pores are harvested by pipetting water onto the slant and dislodging the spores with a sterile loop. The cell/spore suspension is standardized by controlling incubation time, temperature, and the volume of the diluent. The suspension is then used to inoculate the vessels containing the broth compound. The vessels are then incubated at the appropriate temperature. After the incubation, the vessels are examined for growth/no growth. The minimum inhibitory concentration (MIC) is defined as the lowest concentration of compound that results in complete inhibition of growth of the test organism.

Escherichia coli = test: MIC, broth two-fold serial dilution test, Ecol; format: cell-based; conditions: read-out: Minimum Inhibitory Concentration (MIC)
Method: as §1

Cochliobolus sativus = test: In-vitro plant fungicide test, HEL; format: cell-based; conditions: Bipolaris sorokiniana, read-out: % Control; for inhibition of growth at 25 ppm: rate 25 PPM; for inhibition of growth at 50 ppm: rate 50 PPM
Staphylococcus aureus = test: MIC, broth two-fold serial dilution test, Saur; format: cell-based; conditions: read-out: Minimum Inhibitory Concentration (MIC)
Method: as §1

Fusarium roseum = test: microbe, parasite or virus in culture; conditions: Fusarium sambucinum, read-out: % Control
Rhizoctonia solani = test: In-vitro plant fungicide test, RHI; format: cell-based; conditions: read-out: % Control; for inhibition of growth at 25 ppm: rate 25 PPM; for inhibition of growth at 50 ppm: rate 50 PPM
Phytophthora capsici = test: In-vitro plant fungicide test, PHY; format: cell-based; conditions: read-out: % Control; for inhibition of growth at 25 ppm: rate 25 PPM; for inhibition of growth at 50 ppm: rate 50 PPM
Pythium ultimum = test: In-vitro plant fungicide test, PYU; format: cell-based; conditions: Globisporangium ultimum, read-out: % Control; for inhibition of growth at 25 ppm: rate 25 PPM; for inhibition of growth at 50 ppm: rate 50 PPM
Pseudomonas aerugenosa = test: MIC, broth two-fold serial dilution test, Psae; format: cell-based; conditions: read-out: Minimum Inhibitory Concentration (MIC)
Method: as §1

Xanthomonas campestris = test: In-vitro plant fungicide test, XAN; format: cell-based; conditions: read-out: % Control; for inhibition of growth at 25 ppm: rate 25 PPM
Pseudomonas fluorescens = test: MIC, broth two-fold serial dilution test, Psfl; format: cell-based; conditions: read-out: Minimum Inhibitory Concentration (MIC)
Method: as §1

Piricularia oryzae [1] = test: microbe, parasite or virus in culture; format: cell-based; conditions: read-out: % Control
Aureobasidium pullulans = test: MIC, broth two-fold serial dilution test, Apul; format: cell-based; conditions: read-out: Minimum Inhibitory Concentration (MIC)
Method: as §1

Piricularia oryzae [2] = test: whole plant or invertebrate; format: in vivo; conditions: Pyricularia oryzae, 192 h, read-out: % Control
[3] = test system: Septoria glume blotch of wheat; test: whole plant or invertebrate; format: in vivo; conditions: Triticum aestivum
[4] = test system: Pseudoperonospora cubensis; test: whole plant or invertebrate; format: in vivo; conditions: in Cucumis sativus, 168 h
Phytophthora infestans = test: whole plant or invertebrate; format: in vivo; conditions: in Solanum lycopersicum, 96 h, read-out: % Control
Septoria nodorum = test: In-vitro plant fungicide test, SEP; format: cell-based; conditions: Parastagonospora nodorum, read-out: % Control; for inhibition of growth at 50 ppm: rate 50 PPM
[5] = test system: Erysiphe graminis (f. sp. tritici); test: whole plant or invertebrate; format: in vivo; conditions: Blumeria graminis
[6] = test system: Puccinia recondita (f. sp. tritici Races PKB and PLD); test: whole plant or invertebrate; format: in vivo; conditions: 240 h

SMILES | inhibition of growth at 25 ppm (Botrytis cinerea) [%] | MIC (Aspergillus niger) [µg/mL] | MIC (Escherichia coli) [µg/mL] | inhibition of growth at 25 ppm (Cochliobolus sativus) [%] | MIC (Staphylococcus aureus) [µg/mL] | inhibition of growth at 25 ppm (Fusarium roseum) [%] | inhibition of growth at 25 ppm (Rhizoctonia solani) [%] | inhibition of growth at 25 ppm (Phytophthora capsici) [%] | inhibition of growth at 25 ppm (Pythium ultimum) [%] | MIC (Pseudomonas aerugenosa) [µg/mL] | inhibition of growth at 25 ppm (Xanthomonas campestris; XAN) [%] | MIC (Pseudomonas fluorescens) [µg/mL] | inhibition of growth at 25 ppm (Piricularia oryzae [1]) [%] | MIC (Aureobasidium pullulans) [µg/mL] | inhibition of growth at 50 ppm (Botrytis cinerea) [%] | inhibition of growth at 50 ppm (Cochliobolus sativus) [%] | pest or weed control at 200 ppm (Piricularia oryzae [2]) [%] | pest or weed control at 200 ppm [4] [%] | pest or weed control at 200 ppm (Phytophthora infestans) [%] | pest or weed control at 200 ppm [5] [%] | other results
COC(=O)N(CC#CBr)N=Cc1ccc(Cl)cc1 [Compound 1, N'-Methoxycarbonyl-N'-3-bromopropargyl 4-chlorobenzaldehyde hydrazone] | 0 | > 500 | > 500 | 0 | > 500 | 0 | 0 | 0 | 0 | 250 (≈ 759 µM) | 0 | > 500 | 0 | 63 (≈ 191 µM) | – | – | – | – | – | – | –
COC(=O)N(CC#CI)N=Cc1ccc(Cl)c(Cl)c1 [Compound 11, N'-Methoxycarbonyl-N'-3-iodopropargyl 3,4-dichlorobenzaldehyde hydrazone] | – | < 4 | > 500 | – | 8 (≈ 19.5 µM) | – | – | – | – | > 500 | – | > 500 | – | < 4 | 50 | 100 | 90 | 95 | 80 | 0 | inhibition of growth at 50 ppm (Fusarium roseum): 100%; inhibition of growth at 50 ppm (Rhizoctonia solani): 100%; pest or weed control at 200 ppm [3]: 0%; inhibition of growth at 50 ppm (Phytophthora capsici): 90%; inhibition of growth at 50 ppm (Pythium ultimum): 0%; inhibition of growth at 50 ppm (Xanthomonas campestris; XAN, rate 50 PPM): 0%; inhibition of growth at 50 ppm (Septoria nodorum): 90%; inhibition of growth at 50 ppm (Piricularia oryzae [1]): 100%
O=C(c1ccccc1)N(CC#CI)N=Cc1cccc([N+](=O)[O-])c1 [Compound 12, N'-Benzoyl-N'-3-iodopropargyl 3-nitrobenzaldehyde hydrazone] | – | > 100 | > 100 | – | > 100 | – | – | – | – | > 100 | – | > 100 | – | 100 (≈ 231 µM) | 0 | 0 | – | – | – | – | inhibition of growth at 50 ppm (Fusarium roseum): 0%; inhibition of growth at 50 ppm (Rhizoctonia solani): 95%; inhibition of growth at 50 ppm (Phytophthora capsici): 0%; inhibition of growth at 50 ppm (Pythium ultimum): 0%; inhibition of growth at 50 ppm (Xanthomonas campestris; XAN, rate 50 PPM): 0%; inhibition of growth at 50 ppm (Septoria nodorum): 0%; inhibition of growth at 50 ppm (Piricularia oryzae [1]): 100%
COC(=O)N(CC#CI)N=Cc1ccc(Cl)cc1 [Compound 5, N'-Methoxycarbonyl-N'-3-iodopropargyl 4-chlorobenzaldehyde hydrazone] | 0 | < 4 | 125 (≈ 332 µM) | 100 | 8 (≈ 21.2 µM) | 95 | 75 | 50 | 50 | 16 (≈ 42.5 µM) | 0 | 125 (≈ 332 µM) | 100 | < 4 | – | – | 95 | 99 | 90 | 0 | pest or weed control at 200 ppm [6]: 80%; pest or weed control at 200 ppm [3]: 0%
COC(=O)N(CC#CI)N=Cc1ccc([N+](=O)[O-])o1 [Compound 8, N'-Methoxycarbonyl-N'-3-iodopropargyl 5-nitro-2-furancarboxaldehyde hydrazone] | – | < 4 | 63 (≈ 167 µM) | – | < 4 | – | – | – | – | 125 (≈ 331 µM) | – | 250 (≈ 663 µM) | – | < 4 | 0 | 100 | 90 | 0 | 0 | 0 | pest or weed control at 200 ppm [6]: 0%; inhibition of growth at 50 ppm (Fusarium roseum): 100%; inhibition of growth at 50 ppm (Rhizoctonia solani): 100%; pest or weed control at 200 ppm [3]: 0%; inhibition of growth at 50 ppm (Pythium ultimum): 100%; inhibition of growth at 50 ppm (Xanthomonas campestris): 0%; inhibition of growth at 50 ppm (Septoria nodorum): 100%; inhibition of growth at 50 ppm (Piricularia oryzae [1]): 100%
O=C(c1ccccc1)N(CC#CI)N=Cc1ccccc1 [Compound 6, N'-Benzoyl-N'-3-iodopropargyl benzaldehyde hydrazone] | 0 | 6 (≈ 15.5 µM) | 50 (≈ 129 µM) | 0 | 50 (≈ 129 µM) | 0 | 0 | 100 | 100 | 25 (≈ 64.4 µM) | 0 | 50 (≈ 129 µM) | 100 | 3 (≈ 7.73 µM) | – | – | – | – | – | – | inhibition of growth at 25 ppm (Septoria nodorum; rate 25 PPM): 100%
O=CN(CC#CBr)N=Cc1ccc(Cl)cc1 [Compound 2, N'-Formyl-N'-3-bromopropargyl 4-chlorobenzaldehyde hydrazone] | 0 | > 500 | > 500 | 0 | > 500 | 0 | 0 | 75 | 0 | 250 (≈ 835 µM) | 0 | > 500 | 50 | 63 (≈ 210 µM) | – | – | – | – | – | – | pest or weed control at 600 ppm [6]: 0%; pest or weed control at 600 ppm (Phytophthora infestans): 50%; pest or weed control at 600 ppm [5]: 0%
COC(=O)N(CC#CI)N=Cc1ccccc1 [Compound 3, N'-Methoxycarbonyl-N'-3-iodopropargyl benzaldehyde hyrazone] | 0 | < 4 | > 500 | 0 | 125 (≈ 365 µM) | 75 | 100 | 75 | 75 | 250 (≈ 731 µM) | 0 | > 500 | 0 | < 4 | 0 | 0 | 90 | 99 | 80 | 50 | pest or weed control at 200 ppm [6]: 50%; inhibition of growth at 50 ppm (Fusarium roseum): 100%; inhibition of growth at 50 ppm (Rhizoctonia solani): 100%; inhibition of growth at 50 ppm (Phytophthora capsici): 100%; inhibition of growth at 50 ppm (Pythium ultimum): 100%; inhibition of growth at 50 ppm (Xanthomonas campestris; XAN, rate 50 PPM): 0%; inhibition of growth at 50 ppm (Septoria nodorum): 75%; inhibition of growth at 50 ppm (Piricularia oryzae [1]): 95%
COC(=O)N(CC#CI)N=Cc1ccc(C)cc1 [Compound 4, N'-Methoxycarbonyl-N'-3-iodopropargyl 4-methylbenzaldehyde hydrazone] | – | < 4 | 250 (≈ 702 µM) | – | 16 (≈ 44.9 µM) | – | – | – | – | 125 (≈ 351 µM) | – | 125 (≈ 351 µM) | – | 8 (≈ 22.5 µM) | – | – | 90 | 95 | 80 | 0 | pest or weed control at 200 ppm [6]: 50%; pest or weed control at 200 ppm [3]: 50%
COC(=O)N(CC#CI)N=Cc1ccc(C#N)cc1 [Compound 9, N'-Methoxycarbonyl-N'-3-iodopropargyl 4-cyanobenzaldehyde hydrazone] | – | > 250 | > 500 | – | > 500 | – | – | – | – | > 500 | – | > 500 | – | – | 50 | 100 | 0 | 85 | 0 | 0 | pest or weed control at 200 ppm [6]: 0%; inhibition of growth at 50 ppm (Fusarium roseum): 100%; inhibition of growth at 50 ppm (Rhizoctonia solani): 100%; pest or weed control at 200 ppm [3]: 0%; inhibition of growth at 50 ppm (Phytophthora capsici): 95%; inhibition of growth at 50 ppm (Pythium ultimum): 100%; inhibition of growth at 50 ppm (Xanthomonas campestris; XAN, rate 50 PPM): 0%; inhibition of growth at 50 ppm (Septoria nodorum): 100%; inhibition of growth at 50 ppm (Piricularia oryzae [1]): 100%
